Experimental data: patent US9448237B2, “Modified tyrosine amino acids, peptides containing them, and their use for detecting hydrolase enzyme activity” (PAMGENE B.V., priority 2011, dated 2016)

How the values were obtained:
[1] = molecular target: phosphatase PTP1B (Homo sapiens, UniProt P18031); settings: spotted with 1 mM peptide solution; one hour incubation with PTP1B in Tris-buffer containing DTT; FIG. 7
Protocol: After one hour incubation with phosphatase PTP1B in a Tris-buffer containing DTT, the microarray was washed and treated with a solution of PY20 antibody. […] The left image: not treated with PTP1B. The right image: treated with PTP1B.

[2] = system: phosphatase; settings: FIG. 5
Protocol: A Tris buffer (25 μL, 50 mM, pH 7.4, modified with 0.5 mM DTT) was used to dissolve the appropriate phosphatase (20-100 ng) together with BSA (0.25 μL, 10 mg/mL), anti-nitrotyrosine antibody (0.5 μL, 0.5 mg/mL in PBS pH 7.4), FITC-goat-anti-mouse antibody (0.5 μL, 4 μg/mL). The resulting mixture was added to Pamchip® microarrays and the fluorescence imaged in real time using a Pamstation® PS12 instrument. The images were analyzed using the Bionavigator software package (Pamgene International BV, 's-Hertogenbosch, The Netherlands).
To the mixture described in Example 14, a 1 μL amount of sodium vanadate solutions with appropriate concentration was added.

Chain of phosphatase PTP1B (P18031 whole entry): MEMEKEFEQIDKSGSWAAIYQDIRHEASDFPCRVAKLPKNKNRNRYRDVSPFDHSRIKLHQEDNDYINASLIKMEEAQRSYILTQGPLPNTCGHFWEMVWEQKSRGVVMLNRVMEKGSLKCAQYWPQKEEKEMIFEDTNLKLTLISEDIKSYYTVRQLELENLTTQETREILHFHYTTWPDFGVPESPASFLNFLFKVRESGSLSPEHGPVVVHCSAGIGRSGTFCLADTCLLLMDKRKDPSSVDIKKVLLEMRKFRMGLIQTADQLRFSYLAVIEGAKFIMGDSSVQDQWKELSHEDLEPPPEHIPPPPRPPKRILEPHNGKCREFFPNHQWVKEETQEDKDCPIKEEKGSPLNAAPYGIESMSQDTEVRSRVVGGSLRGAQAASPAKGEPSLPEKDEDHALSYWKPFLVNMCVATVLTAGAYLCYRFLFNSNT

Substance	recognition as substrate and dephosphorylation by phosphatase [1]	inhibition of the phosphatase enzyme activity [2]
H-CDADE-(3-Br-pY)-LIPQQG-NH2 [3-bromo-phosphotyrosine peptide]	recognized by the phosphatase and dephosphorylated equally well	
sodium ortho-vanadate		concentration dependent inhibition
